According to US5696151A, “Compounds useful for the inhibition of the replication of HIV-1 and HIV-1 mutants” (priority 1995, dated 1997):
≈ marks a conversion by molar mass, not a printed value. Read-outs that look alike come from different tables or passages of the source.

Columns and labels:
[1] = test system: HIV-1/100-Ile; experiment: Inhibition of HIV-1 induced syncytium formation in CEM cells, RT mutant 100-Ile; type: cell-based; settings: day 4, averages of 2 to 3 independent experiments; for EC50: Human immunodeficiency virus 1, CCRF-CEM, 96 h, Table 2A, read-out: Antiviral Activity EC50, 100-Ile
Outline: (§1)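 Read-out: microscopic scoring of syncytium formation on day 4 post infection. CEM cells at ≈300,000/ml, infected with ~100 CCID50 of HIV-1(IIIB) or RT mutant virus, were cultured with 5-fold serial compound dilutions.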

[2] = test system: HIV-1/188-Leu; experiment: Inhibition of HIV-1 induced syncytium formation in CEM cells, RT mutant 188-Leu; type: cell-based; settings: Human immunodeficiency virus 1, CCRF-CEM, 96 h, day 4, averages of 2 to 3 independent experiments
From the text: (§2) CEM cells were obtained from the American Tissue Cell Culture Collection (Rockville, Md.). HIV-1(IIIB) was originally obtained from the culture supernatant of persistently HIV-1-infected H9 cells and was provided by R. C. Gallo and M. Popovic (National Cancer Institute, National Institutes of Health, Bethesda, Md.). […] 67: 5353-5359 (1993); HIV-1/Lys-138 ("Lys-138") was selected for resistance against TSAO-m^3T as described in Balzarini et al, Virology 192: 246-253 (1993) and Balzarini et al, Proc. Nat. Acad. Sci. USA 90: 6952-6956 (1993); HIV-1/181-Cys ("181-Cys") was selected for resistance against pyridinone L-697,661 as described in Balzarini et al, Virology 192: 246-253 (1993); and HIV-1/188-His ("188-His") was selected for resistance against HEPT as described in Balzarini et al, Mol. Pharmocol. 44: 694-701 (1993). 188-His was then further converted to HIV-1/188-Leu "188-Leu") upon further passage in cell culture in the absence of the HEPT.
(§3) CEM cells were suspended at ≈300,000 cells per ml of culture medium and infected with approximately 100 CCID50 (CCID50 being the 50% cell culture infective dose) of HIV-1(IIIB) or one of the HIV-1 RT mutant strains described above. Then 100 μl of the infected cell suspensions was added to 200 μl microtiter plate wells containing 100 μl of appropriate serial (5-fold) dilutions of the test compounds. The inhibitory effect of the test compounds on HIV-1 induced syncytium formation in CEM cells was examined microscopically on day 4 post infection.

[3] = test system: HIV-1/181-Cys; experiment: Inhibition of HIV-1 induced syncytium formation in CEM cells, RT mutant 181-Cys; type: cell-based; settings: day 4, averages of 2 to 3 independent experiments; for EC50: Human immunodeficiency virus 1, CCRF-CEM, 96 h, Table 2A, read-out: Antiviral Activity EC50, 181-Cys
Outline: as §1

[4] = test system: HIV-1/Lys-138; experiment: Inhibition of HIV-1 induced syncytium formation in CEM cells, RT mutant 138-Lys; type: cell-based; settings: day 4, averages of 2 to 3 independent experiments; for EC50: Human immunodeficiency virus 1, CCRF-CEM, 96 h, Table 2A, read-out: Antiviral Activity EC50, 138-Lys
Outline: as §1

[5] = test system: HIV-1/106-Ala; experiment: Inhibition of HIV-1 induced syncytium formation in CEM cells, RT mutant 106-Ala; type: cell-based; settings: day 4, averages of 2 to 3 independent experiments; for EC50: Human immunodeficiency virus 1, CCRF-CEM, 96 h, Table 2A, read-out: Antiviral Activity EC50, 106-Ala
Outline: as §1

[6] = test system: CEM cells; experiment: in vitro; type: cell-based; settings: Table 2B; CEM cell proliferation; averages of 2 to 3 independent experiments
Outline: (§4)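 Value is the 50% cytostatic concentration, the compound concentration that inhibits CEM cell proliferation by 50%. HIV-1(IIIB) and NNRTI-resistant variants selected in culture (Lys-138, 181-Cys, 188-His, 188-Leu) were used alongside.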

[7] = test system: HIV-1(IIIB); experiment: Inhibition of HIV-1 induced syncytium formation in CEM cells, wild type; type: cell-based; settings: WT = HIV-1(IIIB), day 4, averages of 2 to 3 independent experiments; for EC50: Human immunodeficiency virus 1, IIIB, CCRF-CEM, 96 h, Table 2A, read-out: Antiviral Activity EC50, WT
Outline: as §1

[8] = test system: HIV-1/103-Asn; experiment: Inhibition of HIV-1 induced syncytium formation in CEM cells, RT mutant 103-Asn; type: cell-based; settings: Human immunodeficiency virus 1, CCRF-CEM, 96 h, day 4, averages of 2 to 3 independent experiments
From the text: as §2, §3

[9] = test system: HIV-1 RT mutant strains; experiment: Antiviral activity in CEM cells against the HIV-1 RT mutant strains; type: cell-based; settings: Human immunodeficiency virus 1, CCRF-CEM, read-out: EC50 values against the HIV-1 RT mutant strains
From the text: as §2
as §3, with “The inhibitory effect of the test compounds on HIV-1 induced syncytium formation in CEM cells was examined microscopically on day 4 post infection.” left out

[10] = test system: HIV-1(IIIB) and the HIV-1 RT mutants; experiment: Antiviral activity in CEM cells against wild type and RT mutants; type: cell-based
From the text: as §2
as §3, with “The inhibitory effect of the test compounds on HIV-1 induced syncytium formation in CEM cells was examined microscopically on day 4 post infection.” left out

[11] = in vitro; type: cell-based; settings: human, cem cells, CC50 (50% cytostatic concentration), Table 2A; CEM cell proliferation; averages of 2 to 3 independent experiments
Outline: as §4

[12] = test system: HIV-1 strains containing the 100 Leu →Ile mutation in their RT; settings: background, Balzarini I and II; cited from earlier work
[13] = test system: 181 Tyr →Cys mutation in the RT of HIV-1 strains; settings: background, Balzarini I and II; cited from earlier work
[14] = Table 2A, read-out: Antiviral Activity EC50, 188-Leu
[15] = Table 2A, read-out: Antiviral Activity EC50, 103-Asn

SMILES	EC50 [1] [ng/mL]	EC50 [2, 14] [ng/mL]	EC50 [3] [ng/mL]	EC50 [9] [ng/mL]	EC50 [4] [ng/mL]	EC50 values against HIV-1(IIIB) and the HIV-1 RT mutants (in words) [10]	EC50 [5] [ng/mL]	CC50 [11] [ng/mL]	EC50 [7] [ng/mL]	EC50 [8, 15] [ng/mL]	resistance of 100 Leu →Ile RT mutant strains [12]	also measured
Cc1sccc1C(=S)Nc1ccc(Cl)c(C(=O)OC2CCCCC2)c1 [Compound 9]	–	–	–	–	–	–	–	–	–	–	–	Antiviral Activity of Comparative Compounds EC50, 100-Ile ([1]; Table 2B): 57 ng/mL; EC50 ([2]; Table 2B, read-out: Antiviral Activity of Comparative Compounds EC50, 188-Leu): ≥ 2000 ng/mL; Antiviral Activity of Comparative Compounds EC50, 181-Cys ([3]; Table 2B): 32 ng/mL; Antiviral Activity of Comparative Compounds EC50, 138-Lys ([4]; Table 2B): 20 ng/mL; Antiviral Activity of Comparative Compounds EC50, 106-Ala ([5]; Table 2B): 30 ng/mL; CC50 (50% cytostatic concentration) [6]: 6000 ng/mL (≈ 15.2 µM); Antiviral Activity of Comparative Compounds EC50, WT ([7]; Table 2B): 3.2 ng/mL; EC50 ([8]; Table 2B, read-out: Antiviral Activity of Comparative Compounds EC50, 103-Asn): 130 ng/mL (≈ 0.33 µM)
CC(C)=CCOc1cc(NC(=S)c2ccoc2C)ccc1Cl [Compound IA, N-[4-chloro-3-(3-methyl-2-butenyloxy)phenyl]-2-methyl-3-furancarbothioamide]	3 (≈ 0.00893 µM)	500 (≈ 1.49 µM)	11 (≈ 0.0328 µM)	3 to 11 (≈ 0.00893 to 0.0328 µM)	5 (≈ 0.0149 µM)	extremely low, and virtually similar EC50 values	5 (≈ 0.0149 µM)	> 100000	3 (≈ 0.00893 µM)	6 (≈ 0.0179 µM)	–	–
CC(C)=CCOc1cc(NC(=S)c2ccsc2C)ccc1Cl [Compound IB, N-[4-chloro-3-(3-methyl-2-butenyloxy)-phenyl]-2-methyl-3thiophenecarbothioamide]	4 (≈ 0.0114 µM)	600 (≈ 1.7 µM)	5 (≈ 0.0142 µM)	3 to 11 (≈ 0.00852 to 0.0313 µM)	5 (≈ 0.0142 µM)	extremely low, and virtually similar EC50 values	5 (≈ 0.0142 µM)	5800 (≈ 16.5 µM)	3 (≈ 0.00852 µM)	4 (≈ 0.0114 µM)	–	–
CC(C)=CCN1Cc2cccc3[nH]c(=S)n(c23)C[C@@H]1C [Compound R82150]	–	–	–	–	–	–	–	–	–	–	resistant	–
CC(C)=CCN1Cc2cc(Cl)cc3[nH]c(=S)n(c23)C[C@@H]1C [TIBO R82913]	–	–	–	–	–	–	–	–	–	–	resistant	–
Cc1ccnc2c1NC(=O)c1cccnc1N2C1CC1 [nevirapine]	–	–	–	–	–	–	–	–	–	–	–	resistance of 181 Tyr →Cys RT mutant viruses [13]: resistant
